Earlier results as cited in US20150147306A1, “COMPOSITION FOR TREATING A CIRCADIAN RHYTHM DISORDER” (priority 2012, published 2015).

Conditions: in humans

COc1ccc2[nH]cc(CCNC(C)=O)c2c1 [melatonin]
half-life in the serum: 35 to 50 min
